Data as given in patent US9730445B2, “Herbicidal compositions comprising 4-amino-3-chloro-5-fluoro-6-(4-chloro-2-fluoro-3-methoxyphenyl) pyridine-2-carboxylic acid or a derivative thereof and fungicides” (DOW AGROSCIENCES LLC, priority 2013, dated 2017).

Columns and labels:
LEFCH [1] = assay: Postemergence foliar-applied weed control, direct-seeded rice (greenhouse); format: in vivo, Leptochloa chinensis (L.) Nees (Chinese sprangletop); details: 21 DAA, r38-39 ester 8/16 g ae/ha alone, r40 isotianil 380 g ai/ha alone, r41-42 ester 8/16 + 380
Experimental: (§1) Seeds or nutlets of the desired test plant species were planted in a soil matrix prepared by mixing aloam or sandy loam soil (e.g., 28.6 percent silt, 18.8 percent clay, and 52.6 percent sand, with a pH of about 5.8 and an organic matter content of about 1.8 percent) and calcareous grit in an 80 to 20 ratio. The soil matrix was contained in plastic pots with a volume of 1 quart and a surface area of 83.6 square centimeters (cm^2). […] The plants were grown for 8-22 days in a greenhouse with an approximate 14 hour (h) photoperiod which was maintained at about 29° C. during the day and 26° C. during the night. Nutrients (Peters Excel® 15-5-15 5-Ca 2-Mg and iron chelate) were applied in the irrigation solution as needed and water was added on a regular basis. Supplemental lighting was provided with overhead metal halide 1000-Watt lamps as necessary. The plants were employed for testing when they reached the first through fourth true leaf stage.
(§2) Treatments consisted of the acid or esters of 4-amino-3-chloro-5-fluoro-6-(4-chloro-2-fluoro-3-methoxy-phenyl)pyridine-2-carboxylic acid (Compound A), each formulated as an SC (suspension concentrate), and various fungicidal components alone and in combination. Forms of compound A were applied on an acid equivalent basis.
(§3) For treatments comprised of formulated compounds, measured amounts of compounds were placed individually in 25 mL glass vials and diluted in a volume of 1.25% volume per volume (v/v) Agri-Dex® crop oil concentrate to obtain 12× stock solutions. […] Application solutions were prepared by adding an appropriate amount of each stock solution (e.g., 1 mL) and diluted to the appropriate final concentrations with the addition of […] of an aqueous mixture of 1.25% (v/v) crop oil concentrate so that the final spray solutions contained 1.25+/−0.05% (v/v) crop oil concentrate.
(§4) For treatments comprised of technical compounds, weighed amounts can be placed individually in 25 mL glass vials and dissolved in a volume of 97:3 volume per volume (v/v) acetone/dimethyl sulfoxide (DMSO) to obtain 12× stock solutions. […] When technical materials are used, the concentrated stock solutions can be added to the spray solutions so that the final acetone and DMSO concentrations of the application solutions are 16.2% and 0.5%, respectively.
(§5) As required, additional water and/or 97:3 v/v acetone/DMSO was added to individual application solutions so that the final acetone and DMSO concentrations of the application solutions being compared were 8.1% and 0.25%, respectively
(§6) All stock solutions and applications solutions were visually inspected for compound compatibility prior to application. Spray solutions were applied to the plant material with an overhead Mandel track sprayer equipped with 8002E nozzles calibrated to deliver 187 L/ha over an application area of 0.503 square meters (m^2) at a spray height of 18 to 20 inches (46 to 50 cm) above average plant canopy height. Control plants were sprayed in the same manner with the solvent blank.
(§7) The treated plants and control plants were placed in a greenhouse as described above and watered by sub-irrigation to prevent wash-off of the test compounds. After approximately 3 weeks, the condition of the test plants as compared with that of the untreated plants was determined visually and scored on a scale of 0 to 100 percent where 0 corresponds to no injury or growth inhibition and 100 corresponds to complete kill.
(§8) Colby's equation was used to determine the herbicidal effects expected from the mixtures (Colby, S. R. Calculation of the synergistic and antagonistic response of herbicide combinations. Weeds 1967, 15, 20-22.).
(§9) The following equation was used to calculate the expected activity of mixtures containing two active ingredients, A and B: Expected=A+B−(A×B/100)

BRAPP = assay: as above; format: in vivo
Excerpt: (§10) Seeds or nutlets of the desired test plant species were planted in a soil matrix prepared by mixing aloam or sandy loam soil (e.g., 28.6 percent silt, 18.8 percent clay, and 52.6 percent sand, with a pH of about 5.8 and an organic matter content of about 1.8 percent) and calcareous grit in an 80 to 20 ratio. The soil matrix was contained in plastic pots with a volume of 1 quart and a surface area of 83.6 square centimeters (cm^2). When required to ensure good germination and healthy plants, a fungicide treatment and/or other chemical or physical treatment was applied. The plants were grown for 8-22 days in a greenhouse with an approximate 14 hour (h) photoperiod which was maintained at about 29° C. during the day and 26° C. during the night. Nutrients (Peters Excel® 15-5-15 5-Ca 2-Mg and iron chelate) were applied in the irrigation solution as needed and water was added on a regular basis. Supplemental lighting was provided with overhead metal halide 1000-Watt lamps as necessary. The plants were employed for testing when they reached the first through fourth true leaf stage.
as §2
(§11) Treatment requirements were calculated based upon the rates being tested, the concentration of active ingredient or acid equivalent in the formulation and a 12 milliliter (mL) application volume at a rate of 187 liters per hectare (L/ha).
as §3, §4, §5, §6
as §7, with “kill. […]” for “kill.”

ECHCG = assay: as above; format: in vivo, Echinochloa crus-galli (L.) P. Beauv. (barnyardgrass); details: r38-39 ester 8/16 g ae/ha alone, r40 isotianil 380 g ai/ha alone, r41-42 ester 8/16 + 380
Experimental: as §1, §2, §3, §4, §5, §6, §7, §8, §9

ECHCO = assay: as above; format: in vivo, Echinochloa colonum (L.) LINK (junglerice); details: 21 DAA, r38-39 ester 8/16 g ae/ha alone, r40 isotianil 380 g ai/ha alone, r41-42 ester 8/16 + 380
Excerpt: as §10, §2, §11, §3, §4, §5, §6
as §7, with “kill. […]” for “kill.”

DIGSA = assay: as above; format: in vivo, Digitaria sanguinalis (L.) Scop. (large crabgrass)
Excerpt: as §10, §2, §11, §3, §4, §5, §6
as §7, with “kill. […]” for “kill.”

CYPES = assay: as above; format: in vivo, Cyperus esculentus L. (yellow nutsedge); details: r11-12 ester 8/16 g ae/ha alone, r13 pyroquilon 925 g ai/ha alone, r14-15 ester 8/16 + 925
Experimental: as §1, §2, §3, §4, §5, §6
as §7, with “kill. […]” for “kill.”

CYPIR = assay: as above; format: in vivo, Cyperus iria L. (rice flatsedge); details: 21 DAA, r23-24 ester 16/32 g ae/ha alone, r25 pyroquilon 925 g ai/ha alone, r26-27 ester 16/32 + 925
Experimental: as §1, §2, §3, §4, §5, §6, §7, §8, §9

LEFCH [2] = assay: In-water applied weed control, transplanted paddy rice (greenhouse); format: in vivo, Leptochloa chinensis (L.) Nees (Chinese sprangletop)
Experimental: (§12) Weed seeds or nutlets of the desired test plant species were planted in puddled soil (mud) prepared by mixing a shredded, non-sterilized mineral soil (50.5 percent silt, 25.5 percent clay, and 24 percent sand, with a pH of about 7.6 and an organic matter content of about 2.9 percent) and water at a 1:1 volumetric ratio. The prepared mud was dispensed in 365 mL aliquots into 16-ounce (oz.) non-perforated plastic pots with a surface area of 86.59 square centimeters (cm^2) leaving a headspace of 3 centimeters (cm) in each pot. Rice seeds were planted in Sun Gro MetroMix® 306 planting mixture, which typically has a pH of 6.0 to 6.8 and an organic matter content of about 30 percent, in plastic plug trays. Seedlings at the second or third leaf stage of growth were transplanted into 860 mL of mud contained in 32-oz. non-perforated plastic pots with a surface area of 86.59 cm^2 4 days prior to herbicide application. The paddy was created by filling the headspace of the pots with 2.5 to 3 cm of water. When required to ensure good germination and healthy plants, a fungicide treatment and/or other chemical or physical treatment was applied. The plants were grown for 4-22 days in a greenhouse with an approximate 14 hour (h) photoperiod which was maintained at about 29° C. during the day and about 26° C. during the night. Nutrients were added as Osmocote® (17:6:10, N:P:K+minor nutrients) at 2 g per cup. Water was added on a regular basis to maintain the paddy flood, and supplemental lighting was provided with overhead metal halide 1000-Watt lamps as necessary. The plants were employed for testing when they reached the first through fourth true leaf stage. […]
(§13) Treatment requirements for each compound or fungicidal component were calculated based upon the rates being tested, the concentration of active ingredient or acid equivalent in the formulation, an application volume of 2 mL per component per pot, and an application area of 86.59 cm^2 per pot.
(§14) For formulated compounds, a measured amount was placed in an individual 100 or 200 mL glass vial and was dissolved in a volume of 1.25% (v/v) Agri-Dex® crop oil concentrate to obtain application solutions. […]
as §7, with “water was added as needed” for “watered by sub-irrigation”, “maintain a paddy flood.” for “prevent wash-off of the test compounds.”, “weeks” for “weeks,”, “kill. […]” for “kill.”

CYPRO = assay: as above; format: in vivo, Cyperus rotundus L. (purple nutsedge)
Experimental: Weed seeds or nutlets of the desired test plant species were planted in puddled soil (mud) prepared by mixing a shredded, non-sterilized mineral soil (50.5 percent silt, 25.5 percent clay, and 24 percent sand, with a pH of about 7.6 and an organic matter content of about 2.9 percent) and water at a 1:1 volumetric ratio. The prepared mud was dispensed in 365 mL aliquots into 16-ounce (oz.) non-perforated plastic pots with a surface area of 86.59 square centimeters (cm^2) leaving a headspace of 3 centimeters (cm) in each pot. Rice seeds were planted in Sun Gro MetroMix® 306 planting mixture, which typically has a pH of 6.0 to 6.8 and an organic matter content of about 30 percent, in plastic plug trays. Seedlings at the second or third leaf stage of growth were transplanted into 860 mL of mud contained in 32-oz. non-perforated plastic pots with a surface area of 86.59 cm^2 4 days prior to herbicide application. The paddy was created by filling the headspace of the pots with 2.5 to 3 cm of water. When required to ensure good germination and healthy plants, a fungicide treatment and/or other chemical or physical treatment was applied. The plants were grown for 4-22 days in a greenhouse with an approximate 14 hour (h) photoperiod which was maintained at about 29° C. during the day and about 26° C. during the night. Nutrients were added as Osmocote® (17:6:10, N:P:K+minor nutrients) at 2 g per cup. Water was added on a regular basis to maintain the paddy flood, and supplemental lighting was provided with overhead metal halide 1000-Watt lamps as necessary. The plants were employed for testing when they reached the first through fourth true leaf stage.
as §2, with “(compound A)” for “(Compound A),”, “concentrate)” for “concentrate),”
as §13
For formulated compounds, a measured amount was placed in an individual 100 or 200 mL glass vial and was dissolved in a volume of 1.25% (v/v) Agri-Dex® crop oil concentrate to obtain application solutions.
For technical grade compounds, a weighed amount was placed in an individual 100 to 200 mL glass vial and dissolved in a volume of acetone to obtain concentrated stock solutions.
Applications were made by injecting with a pipetter appropriate amounts of the application solutions, individually and sequentially, into the aqueous layer of the paddy. Control plants were treated in the same manner with the solvent blank. Applications were made so that all treated plant material received the same concentrations of acetone and crop oil concentrate.
as §7, with “water was added as needed” for “watered by sub-irrigation”, “maintain a paddy flood.” for “prevent wash-off of the test compounds.”, “weeks” for “weeks,”
as §8, §9

FIMMI = assay: as above; format: in vivo, Fimbristylis miliacea (L.) Vahl (globe fringerush); details: Tricyclazole 200 g ai/ha
Experimental: as §12, §13, §14
as §7, with “water was added as needed” for “watered by sub-irrigation”, “maintain a paddy flood.” for “prevent wash-off of the test compounds.”, “weeks” for “weeks,”, “kill. […]” for “kill.”

[3] = 21 DAA, r38-39 ester 8/16 g ae/ha alone, r40 isotianil 380 g ai/ha alone, r41-42 ester 8/16 + 380

N#Cc1ccccc1NC(=O)c1snc(Cl)c1Cl [Isotianil, 3,4-dichloro-2′-cyano-1,2-thiazole-5-carboxanilide, reference compound]
0%: Visual Weed Control (%)—21 DAA LEFCH Obs (LEFCH [1]) | Visual Weed Control (%)—20 DAA BRAPP Obs (BRAPP; 20 DAA, r9-11 ester 8/16/32 g ae/ha alone, r12 isotianil 200 g ai/ha alone, r13-15 ester 8/16/32 + 200) | Visual Weed Control (%)—21 DAA BRAPP Obs (BRAPP; [3]) | Visual Weed Control (%)—21 DAA ECHCG Obs (ECHCG) | Visual Weed Control (%)—21 DAA ECHCO Obs (ECHCO) | Visual Weed Control (%)—20 DAA DIGSA Obs (DIGSA; 20 DAA, r21-23 ester 8/16/32 g ae/ha alone, r24-25 isotianil 100/200 g ai/ha alone, r26-31 ester 8/16/32 at each of 100, 200) | Visual Weed Control (%)—21 DAA DIGSA Obs (DIGSA; [3])

O=C1CCc2cccc3c2N1CC3 [Pyroquilon, 1,2,5,6-tetrahydropyrrolo[3,2,1-ij]quinolin-4-one, reference compound]
0%: Visual Weed Control (%) - 21 DAA CYPES Obs (CYPES) | Visual Weed Control (%) - 21 DAA CYPIR Obs (CYPIR)

Cc1cccc2sc3nncn3c12 [Tricyclazole, 5-methyl-1,2,4-triazolo[3,4-b][1,3]benzothiazole, reference compound]
0%: Visual Weed Control (%) - 19 DAA LEFCH Obs (LEFCH [2]; Tricyclazole 187.5 g ai/ha) | Visual Weed Control (%) - 19 DAA LEFCH Obs (LEFCH [2]; Tricyclazole 750 g ai/ha) | Visual Weed Control (%) - 22 DAA CYPRO Obs (CYPRO; Tricyclazole 200 g ai/ha, 22 DAA) | Visual Weed Control (%) - 19 DAA CYPRO Obs (CYPRO; Tricyclazole 375 g ai/ha) | Visual Weed Control (%) - 19 DAA CYPRO Obs (CYPRO; Tricyclazole 750 g ai/ha) | Visual Weed Control (%) - 22 DAA FIMMI Obs (FIMMI)
